Experimental findings from patent US4146536A, “Nocardicin E and F, and process for production thereof” (Fujisawa Pharmaceutical Co., Ltd., priority 1975, dated 1979) are described below.

Structures are written as SMILES. In brackets after ≈: the same amount, converted by molar mass.

The test system of data set [1] is Bacillus subtilis ATCC6633. Put plainly: Minimum Inhibitory Concentration (M.I.C.), serial agar dilution. It is filed as cell-based. The note with it: Mueller Hinton agar, inoculum 10^6 cells/ml, 37° C., 20 hours. The method, then: (§1) Minimum Inhibitory Concentration (M.I.C.)
(§2) M.I.C. test was conducted by a usual serial agar dilution method, using Mueller Hinton agar (Inoculum: 10^6 cells/ml) which was incubated at 37° C. for 20 hours. M.I.C. value is expressed as the minimum concentration of the Nocardicin E or F (mcg/ml) which inhibits growth of the microorganism.
For orientation: Agar dilution tests growth on a series of plates holding different concentrations.

The test system of data set [2] is Escherichia coli NIHJ JC-2. Described as above. It is filed as cell-based. The note with it: NIHJJC2, Mueller Hinton agar, inoculum 10^6 cells/ml, 37° C., 20 hours. As to the method: as §1, §2
Data set [3] concerns Pseudomonas aeruginosa NCTC10490. The data set is described as above. It is filed as cell-based. To be noted: Mueller Hinton agar, inoculum 10^6 cells/ml, 37° C., 20 hours. The method, then: as §1, §2
Data set [4] relates to Staphylococcus aureus 209P. Described as above. It is filed as cell-based. The note with it: Mueller Hinton agar, inoculum 10^6 cells/ml, 37° C., 20 hours. As to the method: as §1, §2
A further data set is described as follows: Solubility. The data set is classed as physicochemical.
The mark [5] stands for this setting: aqueous alkaline solution (Nocardicin E: e.g. aqueous ammonia, aqueous sodium hydroxide solution).

With `O=C(NC1CN(C(C(=O)O)c2ccc(O)cc2)C1=O)/C(=N\O)c1ccc(O)cc1` (stereo not drawn) [Nocardicin E], the MIC (commonly the least concentration at which growth counts as inhibited) in data set [1] was greater than 400 µg/mL; in data set [2], greater than 400 µg/mL; in data set [3], 12.5 µg/mL (≈ 31.3 µM); in data set [4], greater than 400 µg/mL. In addition, the Solubility result was “Sparingly soluble” in the data set “Solubility” (C2 H5 OH); “Insoluble” in “Solubility” (CH3 COCH3); “Insoluble” in “Solubility” (CH3 COOC2 H5); “Sparingly soluble” in the data set “Solubility” (CH3 OH); “Insoluble” in “Solubility” (CHCl3); “Highly soluble” in the data set “Solubility” (setting [5]). The Solubility result in the data set “Solubility” (dimethylsulfoxide) and in “Solubility” (pyridine) was “Highly soluble” throughout.
As to `O=C(NC1CN(C(C(=O)O)c2ccc(O)cc2)C1=O)/C(=N/O)c1ccc(O)cc1` (stereo not drawn) [Nocardicin F], the MIC in data set [1] was greater than 400 µg/mL; in data set [2], greater than 400 µg/mL; in data set [3] it was 100 µg/mL (≈ 250 µM); in data set [4], greater than 400 µg/mL. Further, the Solubility result in “Solubility” (C2 H5 OH) is listed as “Sparing soluble”; in “Solubility” (CH3 COCH3) it was “Insoluble”; in the data set “Solubility” (CH3 COOC2 H5), “Insoluble”; in the data set “Solubility” (CH3 OH) it was “Sparing soluble”; in the data set “Solubility” (CHCl3) it was “Insoluble”; in “Solubility” (setting [5]), “Highly soluble”. In addition, the Solubility entry in the data set “Solubility” (dimethylsulfoxide) and in “Solubility” (pyridine) was “Highly soluble” each time.
